Results on one substance are retold here after patent EP1900377A1, “Inhibitors of GPR87 for cancer therapy” (Boehringer Ingelheim International GmbH, priority 2006, dated 2008).

In this test the test system is HN5 cells. As to the kind of experiment: Rescue experiment: antibody pre-incubated with GPR87 N-terminal peptide. Conditions: 50 ug/ml antibody, increasing amounts of peptide, Fig. 7B. The format is cell-based, human. On the procedure: Antibody targeting of hGPR87 on living cells is performed as follows: For antibody applications on living HN5 cells, a rabbit anti-hGPR87, directed against the N-terminus of hGPR87 (Novus Biologicals) is used (in Fig. 7A: N-term). HN5 cells are seeded (75000/6-well and 3000/96-well) the day prior to the antibody treatment. The antibody is used at a concentration of 50 ug/ml in medium without serum. 48 h after antibody addition the cells are either lysed for western blot analysis or analysed by AlamarBlue staining. Briefly, 10 ul of AlamarBlue reagent (Biosource, Camarillo USA/CA) are added to 100 ul medium and incubated until a change in color can be recognized (~6 hours). As a control, 50ug/ml antibody targeting C-terminal domain of human GPR87 is used (in Fig. 7A: C-term). Since antibodies are dissolved in PBS containing 0.01 %sodium azide, 0.01% sodium azide in PBS is added to the cells as a control to exclude toxic side effects (SA ctrl in Fig. 7A).
To determine the specificity of the anti-GPR87 antibody recognizing the N-terminus, in a so-called "rescue experiment", a peptide covering the first 46 amino acids of SEQ ID NO:2, is added. (The amounts used are 50 ug/ml of antibody and increasing amounts of GPR87 N-terminal peptide). […] The reversibility of the effects (proliferation and viability) correlates with the concentration of the blocking peptide (Fig. 7B).

On to “GPR87 N-terminal peptide: a peptide covering the first 46 amino acids of SEQ ID NO:2 (MGFNLTLAKLPNNELHGQESHNSGNRSDGPGKNTTLHNEFDTIVLP)”, for which the “reversal of the pro-apoptotic, anti-proliferative effect of the antibody” value is reported as “can be reversed”.
